Measured values taken from publication PMC6059979 (European journal of medicinal chemistry, 2018).
Peptide text beside a SMILES is read from it. * marks the point of attachment. Palmitoyl = CCCCCCCCCCCCCCCC(=O)*

Experiments:
Assay type in all cases: cell-based
[1] = test system: Vancomycin Resistant Enterococcus faecalis (E. faecalis, ATCC 700802); settings: ATCC 700802, 18 h
[2] = test system: Escherichia coli (E. coli, JM109); settings: JM109, 18 h
[3] = test system: Klebsiella pneumoniae (K. pneumoniae, ATCC 13383); settings: ATCC 13383, 18 h
[4] = test system: Methicillin Resistant Staphylococcus epidermidis (MRSE, RP62A); settings: Methicillin Resistant (, RP62A, 18 h)
[5] = test system: Methicillin Resistant Staphylococcus aureus (MRSA, ATCC 33591); settings: ATCC 33591, 18 h

CCCCCCCCCCCCCCCC(=O)N[C@@H](CCCCN)C(=O)N[C@@H](Cc1ccccc1)C(=O)N[C@@H](CCCCN)C(N)=O [C16-K-F-K] (Palmitoyl-Lys-Phe-Lys-NH2)
>25 µg/mL: MIC E. faecalis [1] | MIC E. coli [2] | MIC K. pneumoniae [3] | MIC MRSE [4] | MIC MRSA [5]
